Target: T1, Chymotrypsin-like elastase family member 2A (Sus scrofa) (UniProt P08419)
T1 sequence (whole entry): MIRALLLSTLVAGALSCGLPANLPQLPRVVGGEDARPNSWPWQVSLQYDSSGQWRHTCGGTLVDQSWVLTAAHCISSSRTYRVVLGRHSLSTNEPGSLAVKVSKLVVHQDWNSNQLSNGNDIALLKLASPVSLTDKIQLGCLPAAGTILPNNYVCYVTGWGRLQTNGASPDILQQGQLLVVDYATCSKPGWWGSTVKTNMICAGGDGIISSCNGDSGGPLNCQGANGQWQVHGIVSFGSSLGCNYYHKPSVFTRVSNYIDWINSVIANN
Test: Effective dose for inhibition of the porcine Pancreatic elastase

CC(C)C/C=C/[C@](C)(O)[C@H]1CC[C@H]2[C@@H]3CC(=O)[C@H]4CC(=O)CC[C@]4(C)[C@H]3CC[C@@]21C
ED50: 100 µM
